Consider two molecules from patent US11046647B2, “Activators of the unfolded protein response” (The Board of Trustees of the University of Illinois, priority 2018, dated 2021).

Data set [1] relates to ERα Negative MCF-10A cells. Kind of data set: Trypan Blue exclusion cell death assay, MCF-10A. The data set is classed as cell-based. The note with it: 75 nM, 24 hours. The text has this:
(§1) TRYPAN BLUE: For decades, viable cells have been measured by their ability to exclude the dye Trypan Blue. […] Dead cells, which have lost membrane integrity, take up the dye and are blue. Thus, the percentage of dead cells is the percentage of cells that are Trypan Blue positive out of the total cell population. Quantitative assessment of Trypan Blue uptake uses a cell counter from Fisher. Since the assay is instrument based, there is no observer bias in determining the percentage of Trypan Blue positive cells.
(§2) TRYPAN BLUE ASSAYS: Assays are performed on cells in 6 well plates: 300,000 cells are plated in each well of a 6-well plate in 3 ml of medium. After 24 hours, the DMSO vehicle or the indicated compound is added (in 1000th of the vol.) The cells incubated for an additional 24 hours, and then harvested in 0.25 ml of trypsin, followed after harvest by 0.75 ml of medium. The cells are spun down and resuspended in 100-200 μl of medium left that is over the cell pellet (resuspend cells by pipetting up and down a few times). Add 10 μl to 10 μl of trypan blue. Then 10 μl is inserted into the counting slide. After inserting the slide into the Fisher TC20 counting is automatic (these many cells are needed because an accurate ratio of Trypan Blue positive to Trypan Blue negative cells requires about 200 cells in the field the instrument counts).
In FIG. 28, neither the test compounds nor BHPI kill non-tumorigenic ERα Negative MCF-10A breast cells. ERα Negative MCF-10A cells were maintained for 24 hours in DMSO vehicle or 75 nM of BHPI or 75 nM of each of the indicated test compounds: 4, 6 and 105. Cell death was determined using the instrument-based Trypan Blue exclusion assay. (n=3±SEM).

Data set [2] relates to CaOV-3 ovarian cancer cells. Kind of data set: Automated Trypan Blue exclusion cell death assay, Caov-3. In kind it is cell-based, human. The conditions noted are these: 24 hours. How it is done: FIG. 33. 105, but not BHPI, kills therapy-resistant ovarian CaOV-3 ovarian cancer cells. (±)-105; Cell death assay: Automated Trypan Blue exclusion. (24 hours post (±)-105)
as §1
as §2, with “After inserting the slide into the Fisher TC20 counting is automatic (these many cells are needed because an accurate ratio of Trypan Blue positive to Trypan Blue negative cells requires about 200 cells in the field the instrument counts).” left out

Data set [3] has as its system protein synthesis in Caov-3 cells. Kind of data set: Protein synthesis inhibition (35S-methionine incorporation), Caov-3. In kind it is cell-based, human. The conditions noted are these: 1,000 nM. The procedure: ERα positive Caov-3, human ovarian cancer cells, were treated for the indicated times with 1,000 nM BHPI or 1,000 nM (−)-105. Cells were briefly labeled with ^35S-methionine. Incorporation of labeled ^35S-methionine into protein was determined by trichloroacetic acid precipitation and trapping of precipitated protein, but not free amino acids, in small Whatman hardened ashless filters. After solubilizing the protein in the filters with base and neutralization with acid, the samples were counted in a liquid scintillation counter. Shown is the average (n≥3) percent inhibition of protein synthesis compared to the 0-time sample. The near quantitative inhibition of protein synthesis by (−)-105 is consistent with (−)-105 inducing lethal hyperactivation of the PERK arm of the UPR. Even non-growing cells are constantly degrading protein and making new proteins. Cells in which nearly all (>90%) of protein synthesis is inhibited cannot grow and will ultimately die.

Data set [4] can be described thus: Pharmacokinetics, brain penetration and tolerability in mice. In kind it is in vivo, mouse. How it is done: FIG. 40. SERK-F6 is tolerated, reaches biologically relevant concentrations, and crosses the blood-brain barrier in vivo. a, Serum concentrations of SERK-F6 after indicated doses, route of administration, and time. Concentration was determined via LC/MS/MS analysis. […] AUC: Area Under the Curve, Cmax: maximum concentration, t1/2: half-life. c,d, Mice (CD-1) were treated with the indicated doses and times, then sacrificed and their serum and brains collected. Concentrations were determined via LC/MS/MS analysis. […] Treatment arms: vehicle daily (n=3), vehicle weekly (n=3), fulv. weekly (5 mg/mouse, s.c., n=6), SERK-F6 daily (10 or 40 mg/kg p.o.). Vehicle arms were combined. g, Mass of tumors harvested from mice. h, observed murine weight during this MCF-7 study (n=6). i,j, Tumor measurements for MCF-7 bilateral orthotopic model (n=4-5).
The pharmacokinetics of SERK-F6 was measured in mice (FIG. 40A-B).

The next data set deals with MDG-luc. cells. The experiment in a line: Metastatic model, MDG-luc cells injected into the tail-vein. The data set is classed as in vivo, mouse. The conditions noted are these: daily dosing. From the text: FIG. 41. SERK-F6 eradicates mutant ERα primary and metastatic breast cancer. a-c, TYS-luc. orthotopic tumors were established in NSG ovariectomized mice (no E2 pellet, 60 days to establish) and dosed daily as indicated (n=5-6). b, representative examples of bioluminescence images of SERK-F6 treated mice (7 days). d,e, TDG-luc. orthotopic tumors were established in NSG ovariectomized mice (no E2 pellet, 120 days to establish) and dosed daily as indicated (n=4-5). e, Bioluminescence image of SERK-F6 treated mouse with TDG-luc. tumor burden after 7 days. f, MYS-luc. orthotopic tumors were established in NSG ovariectomized mice (no E2 pellet, 45 days to establish) and dosed daily as indicated (n=4-5). g, MDG-luc. orthotopic tumors were established in NSG ovariectomized mice (no E2 pellet, 45 days to establish) and dosed daily as indicated (n=4-5). h, Metastatic model with MDG-luc. cells injected into the tail-vein of NSG ovariectomized mice (no E2 pellet, 1.5 months to establish) and mice were dosed daily as indicated (n=4-5).

A further data set deals with T47D cells. The experiment in a line: 24-hour crystal violet assay. In kind it is cell-based, human. How it is done: FIG. 36. Discovery of SERK-F6 (also known as, C(−)-105, (−)-105, (R)-105, (−)-1, or (R)-1), a compound that kills ERα-positive cancer cells, a, Chemical structures of BHPI and racemic compound 1 (i.e. (±)-1), and their cytotoxic activity on T47D breast cancer cells after 24-hour incubations with concentrations as indicated in nM. Cells were stained with annexin V-FITC and PI dyes prior to analysis via flow cytometry. […] Cells were incubated with SERK-F6 or positive control, Raptinal, for 24 hours and then stained with annexin V-FITC and PI dyes and analyzed via flow cytometry. Error bars represent S.E.M of 3 independent replicates. c, IC50 values of SERK-F6 after 24-hour incubation against a panel of cancer cell lines grouped by their reported ERα status. Cell viability was measured by Alamar blue fluorescence and set relative to a vehicle control and a quantitative dead control treated with Raptinal. Error bars represent S.E.M of 3 independent experiments. d, Crystal violet staining of T47D cells after 24-hour incubations with compounds and concentrations as indicated. Image is representative of 2 independent experiments. e,f, Long-term cell culture experiment with T47D, TDG, and TYS cells. Cells were incubated for 2 weeks with compounds (1 μM), followed by compound washout, and cells were cultured for 2 months. Cell number was determined by MTS.

On to `O=C1Nc2c(C(F)(F)F)cccc2C1(c1ccc(O)cc1)c1ccc(OC(F)(F)F)cc1` (racemic) [(±)-105, 3-(4-hydroxyphenyl)-3-(4-(trifluoromethoxy)phenyl)-7-(trifluoromethyl)indolin-2-one], for which, in data set [1], the “cell death of MCF-10A cells” value was “neither BHPI nor any of the test compounds induce significant death”. In addition, in data set [2], the “killing of Caov-3 cells” value is reported as “kills”.

Turning to `O=C1Nc2c(C(F)(F)F)cccc2C1(c1ccc(O)cc1)c1ccc(OC(F)(F)F)cc1` (single isomer, unassigned; (-)) [(−)-105, 3-(4-hydroxyphenyl)-3-(4-(trifluoromethoxy)phenyl)-7-(trifluoromethyl)indolin-2-one], the “inhibition of the synthesis of new proteins” value in data set [3] is recorded as “near-quantitative”. Besides, in data set [4] (CD-1 mice, serum and brain LC/MS/MS), the blood-brain barrier penetration result is reported as “blood-brain barrier penetrant”. For the same molecule, in data set [4] (long-term treatment), the “effect on ERα tissues as measured by circulating estradiol levels” value was “does not ablate ERα tissues”. The tolerability in vivo entry in data set [4] (mouse, in vivo) is reported as “well-tolerated”. Moreover, the “concentrations reached in vivo” value in data set [4] (serum, LC/MS/MS) is listed as “can achieve biologically relevant concentrations in-vivo”. Further, the metastatic tumor burden entry in the data set with MDG-luc. cells was “eradicates metastatic tumor burden”. In addition, in the data set on T47D cells, the cell killing entry was “quantitatively kills”.
